Tests used:
Test in all cases: relative viability (nuclei count vs DMSO), 5 days (fraction); higher = more cells survive
Bleomycin + Foretinib = compound: CC1=C(N=C(N=C1N)[C@H](CC(=O)N)NC[C@@H](C(=O)N)N)C(=O)N[C@@H]([C@H](C2=CN=CN2)OC3C(C(C(C(O3)CO)O)O)OC4C(C(C(C(O4)CO)O)OC(=O)N)O)C(=O)N[C@H](C)[C@H]([C@H](C)C(=O)N[C@@H]([C@@H](C)O)C(=O)NCCC5=NC(=CS5)C6=NC(=CS6)C(=O)NCCC[S+](C)C)O [Bleomycin] + COc1cc2c(Oc3ccc(NC(=O)C4(C(=O)Nc5ccc(F)cc5)CC4)cc3F)ccnc2cc1OCCCN1CCOCC1 [Foretinib] (partner 0.25 µM); details: main component drawn
Method in brief: (§1)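 Lung cancer cell lines, seeded in 1536-well plates, were treated the following day by pin tool with a single drug or with five library-drug doses (not always all listed) in √10 steps on top of a fixed anchor-drug dose. Cells were fixed and nuclei stained in one step after 5 days, and nuclei were counted. Relative viability is the nuclei count for treated wells divided by that for vehicle wells, reported as medians of duplicate plates.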

Bleomycin + Crizotinib = compound: CC1=C(N=C(N=C1N)[C@H](CC(=O)N)NC[C@@H](C(=O)N)N)C(=O)N[C@@H]([C@H](C2=CN=CN2)OC3C(C(C(C(O3)CO)O)O)OC4C(C(C(C(O4)CO)O)OC(=O)N)O)C(=O)N[C@H](C)[C@H]([C@H](C)C(=O)N[C@@H]([C@@H](C)O)C(=O)NCCC5=NC(=CS5)C6=NC(=CS6)C(=O)NCCC[S+](C)C)O [Bleomycin] + C[C@@H](Oc1cc(-c2cnn(C3CCNCC3)c2)cnc1N)c1c(Cl)ccc(F)c1Cl [Crizotinib] (partner 1 µM); details: main component drawn
Method in brief: as §1

Bleomycin + Linsitinib = compound: CC1=C(N=C(N=C1N)[C@H](CC(=O)N)NC[C@@H](C(=O)N)N)C(=O)N[C@@H]([C@H](C2=CN=CN2)OC3C(C(C(C(O3)CO)O)O)OC4C(C(C(C(O4)CO)O)OC(=O)N)O)C(=O)N[C@H](C)[C@H]([C@H](C)C(=O)N[C@@H]([C@@H](C)O)C(=O)NCCC5=NC(=CS5)C6=NC(=CS6)C(=O)NCCC[S+](C)C)O [Bleomycin] + C[C@]1(O)C[C@@H](c2nc(-c3ccc4ccc(-c5ccccc5)nc4c3)c3c(N)nccn32)C1 [Linsitinib] (partner 1 µM); details: main component drawn
Method in brief: as §1

Etoposide + Pictilisib = compound: COc1cc([C@@H]2c3cc4c(cc3[C@@H](O[C@@H]3O[C@@H]5CO[C@@H](C)O[C@H]5[C@H](O)[C@H]3O)[C@H]3COC(=O)[C@H]23)OCO4)cc(OC)c1O [Etoposide] + CS(=O)(=O)N1CCN(Cc2cc3nc(-c4cccc5[nH]ncc45)nc(N4CCOCC4)c3s2)CC1 [Pictilisib] (partner 1 µM)
Method in brief: as §1

Cell Line | relative viability (Bleomycin + Foretinib; first compound 0.01 µM) | relative viability (Bleomycin + Foretinib; first compound 0.03162 µM) | relative viability (Bleomycin + Foretinib; first compound 0.1 µM) | relative viability (Bleomycin + Foretinib; first compound 0.3162 µM) | relative viability (Bleomycin + Foretinib; first compound 1 µM) | relative viability (Bleomycin + Crizotinib; first compound 0.01 µM) | relative viability (Bleomycin + Crizotinib; first compound 0.03162 µM) | relative viability (Bleomycin + Crizotinib; first compound 0.1 µM) | relative viability (Bleomycin + Crizotinib; first compound 0.3162 µM) | relative viability (Bleomycin + Crizotinib; first compound 1 µM) | relative viability (Bleomycin + Linsitinib; first compound 0.01 µM) | relative viability (Bleomycin + Linsitinib; first compound 0.03162 µM) | relative viability (Bleomycin + Linsitinib; first compound 0.1 µM) | relative viability (Bleomycin + Linsitinib; first compound 0.3162 µM) | relative viability (Bleomycin + Linsitinib; first compound 1 µM) | relative viability (Etoposide + Pictilisib; first compound 0.01 µM) | relative viability (Etoposide + Pictilisib; first compound 0.03162 µM) | relative viability (Etoposide + Pictilisib; first compound 0.1 µM) | relative viability (Etoposide + Pictilisib; first compound 0.3162 µM) | relative viability (Etoposide + Pictilisib; first compound 1 µM)
HCC-827 | 0.955 | 1.22 | 0.913 | 0.558 | 0.266 | 0.872 | 0.95 | 0.831 | 0.635 | 0.274 | 0.943 | 1.02 | 0.88 | 0.666 | 0.308 | 1.03 | 0.878 | 0.564 | 0.479 | 0.366
SW 1573 | 0.811 | 0.813 | 0.748 | 0.468 | 0.308 | 0.713 | 0.604 | 0.711 | 0.402 | 0.227 | 0.705 | 0.567 | 0.417 | 0.311 | 0.176 | 0.451 | 0.475 | 0.338 | 0.197 | 0.117
NCI-H1975 | 0.708 | 0.582 | 0.434 | 0.191 | 0.198 | 0.774 | 0.693 | 0.662 | 0.319 | 0.241 | 0.896 | 0.823 | 0.806 | 0.315 | 0.221 | 0.304 | 0.328 | 0.225 | 0.276 | 0.168
NCI-H1703 | 0.298 | 0.325 | 0.306 | 0.283 | 0.275 | 0.751 | 0.655 | 0.676 | 0.322 | 0.195 | 1.06 | 0.639 | 0.517 | 0.321 | 0.19 | 0.234 | 0.313 | 0.269 | 0.214 | 0.171
NCI-H1651 | 0.716 | 0.499 | 0.496 | 0.31 | 0.213 | 0.787 | 0.772 | 0.754 | 0.448 | 0.358 | 0.862 | 0.766 | 0.596 | 0.27 | 0.152 | 0.49 | 0.681 | 0.436 | 0.178 | 0.0908
NCI-H460 | 0.68 | 0.651 | 0.283 | 0.0633 | 0.0375 | 0.331 | 0.0828 | 0.0648 | 0.0162 | 0.0149 | 0.448 | 0.356 | 0.158 | 0.0344 | 0.0252 | 0.393 | 0.434 | 0.151 | 0.076 | 0.0793
LCLC-103H | 0.683 | 0.765 | 0.677 | 0.382 | 0.343 | 0.956 | 1.01 | 1 | 0.915 | 0.588 | 1.03 | 1.06 | 1.06 | 1.13 | 0.564 | 0.541 | 0.74 | 0.527 | 0.679 | 0.519

Reference: the supplement of paper PMC10307832
